Structures are written as SMILES.

This is an account of results in patent US20190289849A1, “Novel Plant Growth Regulators and Methods of Using Same” (Duke University, priority 2016, published 2019).

One experiment concerns Arabidopsis. Description: High concentration (10 mM) apocarotenoid effects on plant growth. In kind it is in vivo. The procedure: FIG. 10 illustrates the effect of high doses of β-cyclocitral and DHAD on root growth. A) The effect of adding small volumes of 10 mM apocarotenoids daily to either the shoots, root tip, or the middle of the root. B) A confocal image of a healthy root stained with propidium iodide, which marks dead cells. C) A root treated with 10 mM β-cyclocitral applied to the tip of the root.
FIG. 11 illustrates the effect of 10 mM apocarotenoids on plant development. A) The percent change in lateral root capacity, normalized to control plants. Abbreviations: dihydro-β-ionone (DHβI), dimethyl-β-cyclocitral (DMβC). β-cyclocitral (β-cyc), pseudoionone (PI), and dihydroactinidiolide (DHAD). B) Confocal image of a control root stained with propidium iodide. C) Image of a root treated with safranal. D) Images of leaves form a control plant. E) Images of leaves from a plant treated with pseudoionone.
At high concentrations (10 mM) of β-cyclocitral or DHAD, root length, shoot mass, and lateral root growth were inhibited. […] In one embodiment, safranal may be detrimental to Arabidopsis at concentrations as low as 500 μM.

Another experiment has as its system lateral root primordia. Description: Lateral root primordia counts with WOX5 (stage 1) and EN7 (stage 3) markers, and primordia emergence. In kind it is in vivo, Arabidopsis thaliana. The protocol:
All seeds were in the Columbia-0 background. Seeds were sterilized with chlorine gas, incubated in 4° C. water for 2 days, and plated on 1% (wt/vol) Murashige and Skoog (1% MS) media with 1% agar. They were exposed to 100-130 μmol/(m^2s^1) illumination and grown vertically under long-day conditions at 22° C. Plants were analyzed at 7 days after stratification (das), unless noted otherwise. D15-treated media was made using D15 (N-(4-fluorobenzyl)-methoxycinnamic hydroxamic acid) synthesized by LeadGen Labs, LLC solubilized in DMSO. 100 mM D15 stock solution was diluted directly into 1% MS media for final concentrations ranging from 1 μM to 100 μM. For initial experiments testing the ability of apocarotenoids to rescue D15, plants were seeded on 1% MS media containing 30 μM D15 and 100 nM apocarotenoid (diluted from 1 mM stock solutions dissolved in DMSO). For subsequent experiments characterizing the effect of β-cyclocitral, plants were exposed to volatile analytical grade β-cyclocitral (≥97%, Sigma Aldrich) using 100×15 mm partitioned petri dishes. One side of the partition was filled with 25 μM β-cyclocitral diluted in 1% MS media. Seeds were plated on the other side of the partition, on 1% MS media. […] For norflurazone treatments, norflurazone (Chem Service) dissolved in DMSO was diluted to a final concentration of 500 nM norflurazone in 1% MS media. For all experiments, including those performed on tomatoes and rice, plants were never exposed to DMSO concentrations that exceeded 0.1%.
(§1) To measure lateral root capacity, the primary root apical meristem of each seedling was sterilely excised at 7 days. The plants were given 3 days to grow out lateral roots, and then each emerged lateral root was counted using a dissection microscope, as described previously (Van Norman et al., Proceedings of the National Academy of Sciences of the United States of America, 2014. 111(13): p. E1300-E1309). Luciferase activity was measured as previously described, using exposure times of 7 min (Moreno-Risueno, M. A., et al., Science, 2010. 329(5997): p. 1306-1311). WOX5^+ and EN7^+ primordia were counted using a stereo zoom microscope (Zeiss). Lateral and primary root lengths for Arabidopsis thaliana and tomato were measured using ImageJ (National Institutes of Health) software. 3D images of rice root architecture were captured using a 360° revolving platform and these images were analyzed using GiA Roots (www.giaroots.org), as described previously by Topp (2013). Primary root lengths were determined by dissecting the root and measuring the length with a ruler. Shoot mass was measured after removing the shoots and drying them for 10 days at 60° C.
First, the effect of D15 on lateral root branching was characterized and is shown FIG. 1. […] NCEDs are a sub-group of CCDs that cleave carotenoids at the 11, 12′ positions. […] By titrating D15 to its IC50 concentration (30 μM), the lateral root capacity was measured with enhanced sensitivity (FIGS. 1A-B). To determine how D15 inhibits lateral root branching, its effect on the lateral root clock, which establishes the sites of lateral root initiation, was examined. To test this, a synthetic promoter driving luciferase (pDR5:LUC) was utilized. In control roots, luminescence intensity oscillates every six hours (FIG. 1C). Only the root cells that experience the peak oscillation intensity become competent to form lateral root pre-branch sites. […] To further characterize the effect of D15 on lateral root initiation, its effect on two stages of primordia development was determined, as marked by WOX5 (pWOX5:GFP) and EN7 (pEN7:GAL4; UAS:H2A-GFP). These lines allow visualization of the QC at stage 1 of primordia development and the endodermis at stage 3 of development, respectively. […] This further supports the lateral root clock evidence that D15 inhibits the initiation of lateral root primordia.

For another experiment, the system named is Arabidopsis thaliana. Description: Lateral root capacity (emerged lateral roots after removal of the primary root apical meristem). In kind it is in vivo.
In experiment [1] the test system is Azucena (tropical japonica) rice. Nature of the experiment: Rice root system architecture and shoot weight. In kind it is in vivo. The protocol:
as §1, with “Azucena (tropical japonica) seeds were dehulled and germinated in the dark for 3 days at 30° C. Germinated seeds were transferred to Yoshida's nutrient solution, solidified with 0.25% gelzan (Caisson Laboratories, Inc.), in 2 L glass cylinders, as described previously (Topp, C. N., et al., Proceedings of the National Academy of Sciences of the United States of America, 2013. 110(18): p. […]-[…].). Rice roots were imaged at 12 das. To measure” for “To measure”, “111(13): p. […]-[…]). Luciferase activity” for “111(13): p. E1300-E1309). Luciferase activity”

`CC1=C(C=O)C(C)(C)CCC1` [β-cyclocitral]: in the experiment with Arabidopsis (10 mM), the lateral root growth result is given as “inhibited”, the root length entry is “inhibited” and the shoot mass entry is recorded as “inhibited”. Further, in the experiment with Arabidopsis (10 mM applied only to the root tip), the root growth entry is reported as “sufficient to reduce root growth”. In addition, the “WOX5+ primordia initiation” value with lateral root primordia (in D15-treated plants) was “did not rescue”. Further, the “WOX5+ sites” value with lateral root primordia (in the absence of D15) is on record as “did not increase”. Further, in the experiment with lateral root primordia (in the absence of D15, p=0.12), the “number of EN7+ primordia” value was “did increase”. Moreover, in the experiment with lateral root primordia (in the presence of D15, p=0.02), the “number of EN7+ primordia” value was “did increase”. In addition, the “lateral root capacity / branching in combination with D15 (screen)” value in the experiment on Arabidopsis thaliana (30 μM D15 plus apocarotenoid, normalized to D15 treatment) is on record as “increase lateral root branching”. Moreover, the “rescue of D15 inhibition of lateral root branching” value in the experiment on Arabidopsis thaliana (D15-treated plants, apocarotenoid concentration varied for maximum rescue) was “fully rescue”. Further, in experiment [1] (Azucena rice), the crown root growth entry is “dramatically increasing” and the primary root growth result is recorded as “dramatically increasing”. Also, the “root system depth and compactness vs control plants” value in experiment [1] (Azucena rice, 10 μM β-cyclocitral per FIG. 8) is “deeper and more compact”. Besides, in experiment [1] (rice), the lateral root length result is on record as “decreased” and the shoot growth entry was “remained unchanged”. In addition, in experiment [1] (rice plants), the dry shoot weight entry was “does not significantly change”.
